Patent publication US8288435B2, “2-aza-bicyclo[3.1.0]hexane derivatives as orexin receptor antagonists” (Actelion Pharmaceuticals Ltd., priority 2006, dated 2012)

Columns and labels:
human orexin-2 receptor = target: T1, human orexin-2 receptor (Homo sapiens, UniProt O43614); assay: Intracellular calcium measurements (FLIPR), orexin receptor antagonistic activity, OX2; assay type: cell-based; conditions: CHO cells expressing the human orexin-2 receptor, 10 nM orexin-A as agonist
T1 construct: expressed in transfected cells; host or cells: CHO (Chinese hamster ovary) cells, G418 selection
T1 sequence (O43614 1-444): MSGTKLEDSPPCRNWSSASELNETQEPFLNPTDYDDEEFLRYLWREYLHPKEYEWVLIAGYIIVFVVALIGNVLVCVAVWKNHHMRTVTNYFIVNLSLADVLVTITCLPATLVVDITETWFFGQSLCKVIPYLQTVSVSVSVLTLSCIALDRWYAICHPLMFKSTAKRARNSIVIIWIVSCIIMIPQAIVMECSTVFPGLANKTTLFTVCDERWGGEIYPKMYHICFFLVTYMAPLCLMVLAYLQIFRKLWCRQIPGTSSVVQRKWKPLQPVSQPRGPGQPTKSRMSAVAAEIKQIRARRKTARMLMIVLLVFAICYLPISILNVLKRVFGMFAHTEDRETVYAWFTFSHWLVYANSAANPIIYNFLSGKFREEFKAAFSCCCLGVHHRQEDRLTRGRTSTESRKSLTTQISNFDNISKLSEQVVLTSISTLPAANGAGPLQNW
Description: (§1) The orexin receptor antagonistic activity of the compounds of formula (I) is determined in accordance with the following experimental method.
(§2) Intracellular Calcium Measurements:
(§3) Chinese hamster ovary (CHO) cells expressing the human orexin-1 receptor and the human orexin-2 receptor, respectively, are grown in culture medium (Ham F-12 with L-Glutamine) containing 300 μg/ml G418, 100 U/ml penicillin, 100 μg/ml streptomycin and 10% inactivated fetal calf serum (FCS). The cells are seeded at 80′000 cells/well into 96-well black clear bottom sterile plates (Costar) which have been precoated with 1% gelatine in Hanks' Balanced Salt Solution (HBSS). All reagents are from Gibco BRL. The seeded plates are incubated overnight at 37° C. in 5% CO2.
(§4) Human orexin-A as an agonist is prepared as 1 mM stock solution in MeOH:water (1:1), diluted in HBSS containing 0.1% bovine serum albumin (BSA) and 2 mM HEPES for use in the assay at a final concentration of 10 nM.
(§5) Antagonists are prepared as 10 mM stock solution in DMSO, then diluted in 96-well plates, first in DMSO, then in HBSS containing 0.1% bovine serum albumin (BSA) and 2 mM HEPES.
(§6) On the day of the assay, 100 μl of loading medium (HBSS containing 1% FCS, 2 mM HEPES, 5 mM probenecid (Sigma) and 3 μM of the fluorescent calcium indicator fluo-3 AM (1 mM stock solution in DMSO with 10% pluronic acid) (Molecular Probes) is added to each well.
(§7) The 96-well plates are incubated for 60 min at 37° C. in 5% CO2. The loading solution is then aspirated and cells are washed 3 times with 200 μl HBSS containing 2.5 mM probenecid, 0.1% BSA, 2 mM HEPES. 100 μl of that same buffer is left in each well.
(§8) Within the Fluorescent Imaging Plate Reader (FLIPR, Molecular Devices), antagonists are added to the plate in a volume of 50 μl, incubated for 20 min and finally 100 μl of agonist is added. Fluorescence is measured for each well at 1 second intervals, and the height of each fluorescence peak is compared to the height of the fluorescence peak induced by 10 nM orexin-A with buffer in place of antagonist. For each antagonist, IC50 value (the concentration of compound needed to inhibit 50% of the agonistic response) is determined.

human orexin-1 receptor = target: T2, human orexin-1 receptor (Homo sapiens, UniProt O43613); assay: Intracellular calcium measurements (FLIPR), orexin receptor antagonistic activity, OX1; assay type: cell-based; conditions: CHO cells expressing the human orexin-1 receptor, 10 nM orexin-A as agonist
T2 construct: expressed in transfected cells; host or cells: CHO (Chinese hamster ovary) cells, G418 selection
T2 sequence (O43613 1-425): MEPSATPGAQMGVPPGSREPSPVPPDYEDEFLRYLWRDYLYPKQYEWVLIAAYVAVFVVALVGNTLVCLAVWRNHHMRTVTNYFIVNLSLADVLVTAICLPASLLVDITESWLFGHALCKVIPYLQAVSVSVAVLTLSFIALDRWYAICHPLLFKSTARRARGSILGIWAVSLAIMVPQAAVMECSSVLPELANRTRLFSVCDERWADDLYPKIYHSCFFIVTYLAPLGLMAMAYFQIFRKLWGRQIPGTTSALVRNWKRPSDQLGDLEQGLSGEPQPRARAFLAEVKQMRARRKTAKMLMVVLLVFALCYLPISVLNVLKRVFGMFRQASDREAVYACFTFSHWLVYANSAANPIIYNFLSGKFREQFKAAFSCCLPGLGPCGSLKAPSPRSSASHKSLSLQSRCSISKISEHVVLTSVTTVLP
Description: as §1, §2, §3, §4, §5, §6, §7, §8

| IC50 (human orexin-2 receptor) | IC50 (human orexin-1 receptor) | Compound |
| --- | --- | --- |
| 358 nM | 104 nM | Cc1nc(C(=O)N2[C@H](CNC(=O)c3nccc4ccccc34)C[C@@H]3C[C@@H]32)c(-c2cccc(F)c2)s1 [Example 38, isoquinoline-1-carboxylic acid {(1S,3S,5S)-2-[5-(3-fluoro-phenyl)-2-methyl-thiazole-4-carbonyl]-2-aza-bicyclo[3.1.0]hex-3-ylmethyl}-amide] |
| 68 nM | 131 nM | O=C(c1nc(C2CC2)sc1-c1ccccc1)N1[C@H](CNc2ncc(Br)cn2)C[C@@H]2C[C@@H]21 [Example 265, {(1S,3S,5S)-3-[(5-Bromo-pyrimidin-2-ylamino)-methyl]-2-aza-bicyclo[3.1.0]hex-2-yl}-(2-cyclopropyl-5-phenyl-thiazol-4-yl)-methanone] |
| 57 nM | 42 nM | Cc1cccc(-c2sc(C)nc2C(=O)N2[C@H](CNC(=O)c3cccc(C(F)(F)F)c3)C[C@@H]3C[C@@H]32)c1 [Example 101, N-[(1S,3S,5S)-2-(2-Methyl-5-m-tolyl-thiazole-4-carbonyl)-2-aza-bicyclo[3.1.0]hex-3-ylmethyl]-3-trifluoromethyl-benzamide] |
| 40 nM | 14 nM | Cc1cccc(-c2sc(C)nc2C(=O)N2[C@H](CNC(=O)c3ccc4ccccc4n3)C[C@@H]3C[C@@H]32)c1 [Example 93, Quinoline-2-carboxylic acid [(1S,3S,5S)-2-(2-methyl-5-m-tolyl-thiazole-4-carbonyl)-2-aza-bicyclo[3.1.0]hex-3-ylmethyl]-amide] |
| 74 nM | 1980 nM | COc1ccc(C(=O)NC[C@@H]2C[C@@H]3C[C@@H]3N2C(=O)c2nc(C)sc2-c2cccc(C)c2)cc1OC [Example 123, 3,4-Dimethoxy-N-[(1S,3S,5S)-2-(2-methyl-5-m-tolyl-thiazole-4-carbonyl)-2-aza-bicyclo[3.1.0]hex-3-ylmethyl]-benzamide] |
| 41 nM | 139 nM | Cc1nc(C(=O)N2[C@H](CNC(=O)c3cccc4c3CCO4)C[C@@H]3C[C@@H]32)c(-c2cccc(F)c2C)s1 [Example 199, 2,3-Dihydro-benzofuran-4-carboxylic acid {(1S,3S,5S)-2-[5-(3-fluoro-2-methyl-phenyl)-2-methyl-thiazole-4-carbonyl]-2-aza-bicyclo[3.1.0]hex-3-ylmethyl}-amide] |
| 57 nM | 45 nM | Cc1cccc(-c2sc(N)nc2C(=O)N2[C@H](CNC(=O)c3cccc4cccnc34)C[C@@H]3C[C@@H]32)c1 [Example 176, Quinoline-8-carboxylic acid [(1S,3S,5S)-2-(2-amino-5-m-tolyl-thiazole-4-carbonyl)-2-aza-bicyclo[3.1.0]hex-3-ylmethyl]-amide] |
| 102 nM | 109 nM | O=C(NC[C@@H]1C[C@@H]2C[C@@H]2N1C(=O)c1ncsc1-c1cccc(Cl)c1)c1cccc2c1CCO2 [Example 212, 2,3-Dihydro-benzofuran-4-carboxylic acid {(1S,3S,5S)-2-[5-(3-chloro-phenyl)-thiazole-4-carbonyl]-2-aza-bicyclo[3.1.0]hex-3-ylmethyl}-amide] |
| 60 nM | 15 nM | Cc1nc2sccn2c1C(=O)NC[C@@H]1C[C@@H]2C[C@@H]2N1C(=O)c1ccccc1-c1cccc(Cl)c1 [Example 17, 6-methyl-imidazo[2,1-b]thiazole-5-carboxylic acid [(1S,3S,5S)-2-(3′-chloro-biphenyl-2-carbonyl)-2-aza-bicyclo[3.1.0]hex-3-ylmethyl]-amide] |
